# Experiments:
# [1] = tested on: organotypic hippocampal slice cultures; test: AMPA toxicity in organotypic hippocampal slice cultures (PI fluorescence in CA1); type: cell-based, Wistar rat
# Procedure: (§1) Medium was changed every 3-4 days.
# (§2) Neurotoxicity protocols are outlined below.
# (1) AMPA: Cultures were transferred to fresh SFM (+PI) containing 30 μM S-AMPA for 3 hours under normal culture conditions. At the end of this period, cultures were returned to fresh SFM for 21 hours prior to determination of neuronal death by PI imaging. GYKI52466 (30 μM) was used as a positive, neuroprotective control.
# [2] = tested on: organotypic hippocampal slice cultures; test: Oxygen-glucose deprivation (OGD) in organotypic hippocampal slice cultures (PI fluorescence in CA1); type: cell-based, Wistar rat
# Procedure: as §1, §2
# (2) Oxygen-Glucose Deprivation (OGD): Experimental ischaemia was performed by exposing cultures to oxygen-glucose deprivation (OGD) as described previously. […] OGD was induced by transferring cultures to glucose-free SFM (+PI) which had been saturated with 95% N2/5% CO2. Culture plates (without lids) were then sealed into an airtight chamber in which the atmosphere was saturated with 95% N2/5% CO2 by continuously blowing through gas at 10 L/min for ten minutes before being sealed and placed in the incubator for 50 mins (total time of OGD was therefore 60 mins). At the end of the period of OGD cultures were returned to normoxic SFM containing PI and placed back in the incubator for 23 hours.
# [3] = tested on: organotypic hippocampal slice cultures; test: Duroquinone free radical-mediated toxicity in organotypic hippocampal slice cultures (PI fluorescence in CA1); type: cell-based, Wistar rat; conditions: 100 μM; 100 μM duroquinone 3 hours; duroquinone alone 51.0±3.4%
# Procedure: as §1, §2
# (5) Free radical-mediated toxicity (Duroquinone): Duroquinone produces superoxide-mediated neurotoxicity producing a selective neuronal lesion in the CA1 region. Wilde et al, J. Neurochem., 69(2):883-886 (1997). Cultures were transferred to fresh SFM (+PI) containing 100 μM duroquinone for 3 hours under normal culture conditions. At the end of this period, cultures were returned to fresh SFM for 21 hours prior to determination of neuronal death by PI imaging. MnTBAP (100 μM) was used as a positive neuroprotective control.
# [4] = tested on: organotypic hippocampal slice cultures; test: Hypoxia-induced neurodegeneration in organotypic hippocampal slice cultures (PI fluorescence in CA1); type: cell-based, Wistar rat
# Procedure: as §1, §2
# (3) Hypoxia: Hypoxia was performed by exposing cultures to oxygen-deprivation as described previously. Pringle et al, Brain Research, 755:36-46 (1997); Pringle et al, Stroke, 27:2124-2130 (1996). Hypoxia was induced by transferring cultures to SFM (+PI) which had been saturated with 95% N2/5% CO2. Culture plates (without lids) were then sealed into an airtight chamber in which the atmosphere was saturated with 95% N2/5% CO2 by continuously blowing through gas at 10 L/min for ten minutes before being sealed and placed in the incubator for 170 mins (total time of hypoxia was therefore 180 mins). At the end of the period of hypoxia, cultures were returned to normoxic SFM (+PI) and placed back in the incubator for 21 hours. The freeradical scavenger MnTBAP (100 μM) was used as a positive neuroprotective control.
# [5] = tested on: dopamine turnover in mice striatum; test: Dopamine, DOPAC and HVA content / dopamine turnover in mice striatum (HPLC with electrochemical detection); type: in vivo, C57BL/6 mice; conditions: for dopamine turnover in mice: monotherapy vs combination, FIG. 3
# Procedure: C57BL/6 mice (SLC, Shizuoka, Japan) were used for the experiment. […] The two drugs were orally administered by gavage 1 hour before sampling. At the time the mice were sacrificed, both striata were rapidly dissected and were frozen by liquid nitrogen. The samples were subsequently sonicated in 0.5 ml of chilled 0.5 M perchloric acid containing 0.1 M EDTA, and centrifuged at 13000 rpm for 15 min at 4° C. Then monoamine levels were measured by HPLC with electrochemical detection. Supernatant aliquots of 201 were separated over an Eicompak SC5-ODS column (3×150 mm; Eicom, Japan) with mobile phase of 17% methanol, 83% 0.1M acetate/citrate buffer (pH 3.5) containing 190 mg/ml sodium 1-octanesulfonate and 50 mg/ml EDTA, and a flow rate of 0.65 ml/min. Peaks of dopamine, DOPAC, HVA, 5-HT, and 5-HIAA were quantified by area integration with PowerChrom (eDAQ, Australia), and concentrations were expressed as nanograms per milligram of striatal tissue.
# [6] = C57BL/6, mouse, in vivo, po, 1 h
smiles,measurement,setting,value
CC1=NN=C(c2ccc(N)cc2)c2cc3c(cc2C1)OCO3 [GYKI52466],"neuronal damage, % of CA1 with PI fluorescence","[1]; 30 μM test compound, 30 μM AMPA 3 hours, AMPA alone 65.1±1.7%",14.3±2.3%
same,"neuronal damage, % of CA1 with PI fluorescence","[1]; 30 μM, pre-incubation series, AMPA alone 46.5±5.0%",21.7±2.7%
same,"neuronal damage, % of CA1 with PI fluorescence","[2]; 30 μM, 60 minutes OGD, OGD alone 50.6±5.2%",36.9±3.6%
O=C(O)c1ccc(/C2=C3\C=CC(=N3)/C(c3ccc(C(=O)O)cc3)=c3/cc/c4[n]3[Mn]([Cl])[n]3c2ccc3/C(c2ccc(C(=O)O)cc2)=C2/C=CC(=N2)\C=4c2ccc(C(=O)O)cc2)cc1 [MnTBAP],"neuronal damage, % of CA1 with PI fluorescence","[2]; 100 μM, 60 minutes OGD, OGD alone 50.6±5.2%",0.1±0.0%
same,"neuronal damage, % of CA1 with PI fluorescence","[2]; 100 μM, second series, OGD alone 44.8±[…]",0.6±0.2%
same,"neuronal damage, % of CA1 with PI fluorescence",[3],0.1±0.0%
same,"neuronal damage, % of CA1 with PI fluorescence","[4]; 100 μM, 3 hours hypoxia, hypoxia alone 45.1±3.5%",0.2±0.1%
same,"neuronal damage, % of CA1 with PI fluorescence","[4]; 100 μM, repeated experiment, hypoxia alone 36.9±[…]",0.8±0.4%
same,"neuronal damage, % of CA1 with PI fluorescence","[4]; second set, hypoxia alone 36.4±[…]",0.0±0.0%
"COc1cc2c(cc1OC)C(=O)C(CC1CCN(Cc3ccccc3)CC1)C2 (stereo not shown) [donepezil, 1-benzyl-4-((5,6-dimethoxy-1-indanon)-2-yl)methylpiperidine]",content of dopamine in striatum,"[5]; donepezil orally, 1 hour before sampling",reduced the content of dopamine significantly
same,DPAC/DA,"[5]; donepezil orally, FIG. 2",increased significantly
same,HVA/DA,"[5]; donepezil orally, FIG. 2",increased significantly
same,dopamine turnover in mice,[5],modulated dopamine turnover but neither reached significance
same,dose at which peripheral side effect was shown,[6],≥ 7.5 mg/kg
"N#Cc1ccccc1-c1cc(-c2ccccn2)cn(-c2ccccc2)c1=O [2-(2-oxo-1-phenyl-5-pyridin-2-yl-1,2-dihydropyridin-3-yl)benzonitrile]",content of HVA in striatum,"[5]; 1 mg/kg, orally, 1 hour before sampling, FIG. 1",elevated
same,dopamine turnover in mice,[5],modulated dopamine turnover but neither reached significance
same,effect on OGD-induced neurotoxicity,"[2]; any other concentration assessed (up to 3 μM), OGD alone 50.6±5.2%",no significant effect
same,EC50 in OGD model,[2]; six-point concentration-response curve,could not be established
same,"neuronal damage, % of CA1 with PI fluorescence","[4]; 5 μM, hypoxia alone 45.1±3.5%",3.9±1.8%

# Source: patent US20090131480A1 (priority 2005, published 2009)
